Test results from patent US20260226427A1, “TEST SYSTEM COMPRISING STABLY CYP-TRANSFECTED OR TRANSDUCED MAMMALIAN CELLS” (BRANDENBURGISCHE TECHNISCHE UNIVERSITÄT COTTBUS-SENFTENBERG, priority 2023, published 2026).
Where two headings read alike, the source gives them in different places.

Experiments:
[1] = molecular target: T1, CYP1A2 (Homo sapiens, UniProt P05177)
T1 sequence (P05177 2-516 limits assumed): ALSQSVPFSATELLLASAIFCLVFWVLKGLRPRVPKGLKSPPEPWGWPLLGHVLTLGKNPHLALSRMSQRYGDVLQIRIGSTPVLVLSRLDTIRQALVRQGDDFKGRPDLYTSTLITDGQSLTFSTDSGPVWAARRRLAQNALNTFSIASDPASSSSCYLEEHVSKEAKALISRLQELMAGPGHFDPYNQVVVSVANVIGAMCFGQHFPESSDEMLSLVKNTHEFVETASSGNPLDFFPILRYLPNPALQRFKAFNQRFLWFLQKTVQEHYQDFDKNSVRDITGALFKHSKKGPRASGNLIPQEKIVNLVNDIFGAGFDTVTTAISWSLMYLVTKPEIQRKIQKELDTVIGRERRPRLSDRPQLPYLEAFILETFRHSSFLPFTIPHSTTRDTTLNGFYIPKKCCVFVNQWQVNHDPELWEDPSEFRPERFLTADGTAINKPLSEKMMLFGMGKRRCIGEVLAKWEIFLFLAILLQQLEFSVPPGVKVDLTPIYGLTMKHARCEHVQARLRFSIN

[2] = molecular target: T2, CYP3A4 (Homo sapiens, UniProt P08684)
T2 sequence (P08684 2-503 limits assumed): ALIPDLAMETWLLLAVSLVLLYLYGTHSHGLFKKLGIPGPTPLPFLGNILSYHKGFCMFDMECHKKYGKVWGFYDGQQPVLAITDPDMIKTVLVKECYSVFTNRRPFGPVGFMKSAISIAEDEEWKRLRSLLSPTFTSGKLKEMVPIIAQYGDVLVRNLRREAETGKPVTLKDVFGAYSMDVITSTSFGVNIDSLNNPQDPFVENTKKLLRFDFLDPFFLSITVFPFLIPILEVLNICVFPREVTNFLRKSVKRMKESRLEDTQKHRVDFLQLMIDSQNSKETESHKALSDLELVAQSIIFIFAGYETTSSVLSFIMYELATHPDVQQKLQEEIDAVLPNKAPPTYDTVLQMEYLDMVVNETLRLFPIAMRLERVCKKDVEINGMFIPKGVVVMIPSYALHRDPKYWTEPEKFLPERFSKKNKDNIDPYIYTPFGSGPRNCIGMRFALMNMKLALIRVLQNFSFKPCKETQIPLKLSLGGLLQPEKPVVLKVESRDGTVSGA

[3] = molecular target: T2, CYP3A4; remark: listed apart in the source

Structure (SMILES)	phenacetin metabolite production ([1]; 2 h) [µg]	phenacetin metabolite production ([1]; 48 h) [µg]	yield of main metabolite m(acetaminophen) ([1]; 48 h) [µg]	yield of main metabolite m(6β-OH-T) [2] [µg]	yield of main metabolite (6β-hydroxytestosterone) in 200 μL preparation [3]	yield of main metabolite in 200 μL metabolism preparation [3] [ng]
CCOc1ccc(NC(C)=O)cc1 [phenacetin]	17	101	101 ± 4			
C[C@]12CC[C@H]3[C@@H](CCC4=CC(=O)CC[C@@]43C)[C@@H]1CC[C@@H]2O [testosterone]				17.3 ± 1.4	up to 100 ng	100 to 200
